Here are results for 95 molecules from PubChem BioAssay AID1508612.

A word on the Papp: it is a coefficient for how fast a substance crosses the barrier.

This series is described as follows: passive permeability, PAMPA, ADME assay (AID 1508612). The settings on record: pH 7.4, 30.0 min, 50.0 µM. (In PAMPA a lipid-coated filter parts donor from acceptor wells.)

Take `O=C(Nc1ncc(Cc2ccc(C(F)(F)F)cc2)s1)c1cnc(-c2ccccc2)[nH]1`: the apparent permeability (Papp) was less than 1 ×10⁻⁶ cm/s.

For `Cc1ccc(-c2cc(C(=O)Nc3ccc(-n4cncn4)cc3)c3ccccc3n2)cc1C`, the Papp is less than 1 ×10⁻⁶ cm/s.

`COc1ccccc1Nc1ccnc(N2CCN(C(=O)c3ccc(C)cc3)CC2)n1` displayed a Papp greater than 1000 ×10⁻⁶ cm/s.

Turning to `O=C1CCCC2=C1C(c1[nH]ncc1Cl)N=C(Nc1nc3ccc(Cl)cc3o1)N2` (stereo not given), the Papp was 651 ×10⁻⁶ cm/s.

As for `O=C(O)c1ccc(N2C(=O)/C(=C/c3ccc(-c4ccc([N+](=O)[O-])cc4)o3)C=C2c2ccccc2)cc1`, the Papp amounted to 34.3 ×10⁻⁶ cm/s.

`CC(=O)c1c(C)[nH]c(C(=O)Nc2cccc(S(=O)(=O)N3CCCCC3)c2)c1C`: the Papp is greater than 1000 ×10⁻⁶ cm/s.

The molecule `CCCc1ccc(C(=O)NC(=O)c2ccccc2O)cc1` returned a Papp of less than 1 ×10⁻⁶ cm/s.

`CN1C(=O)CN=C(c2ccccc2Cl)c2cc(Cl)ccc21` came in with a Papp greater than 1000 ×10⁻⁶ cm/s.

As for `O=C1CCCC2=C1C(c1[nH]ncc1Cl)N=C(Nc1nc3ccc(F)cc3o1)N2` (stereo not given), the Papp stood at 653 ×10⁻⁶ cm/s.

In the case of `CCCCn1cc2c(c1-c1ccc(Br)cc1)c(=O)n(C)c(=O)n2C`, the Papp was greater than 1000 ×10⁻⁶ cm/s.

The molecule `Cc1ccc(CNCc2cn[nH]c2-c2ccc(C)cc2)cc1` registered a Papp greater than 1000 ×10⁻⁶ cm/s.

Take `O=C(Nc1nc(-c2ccccc2)cs1)c1ccncc1NS(=O)(=O)c1ccccc1F`: the Papp turned out to be 468 ×10⁻⁶ cm/s.

With `O=C(Nc1nnc(-c2cccs2)o1)c1ccc(Cl)cc1`, the Papp stood at 126 ×10⁻⁶ cm/s.

On to `NC(=O)C1CCN(c2nc(-c3ccccc3N)cs2)CC1`, for which the Papp was found to be 136 ×10⁻⁶ cm/s.

Turning to `CN(C)C(=O)c1cc2cnc(Nc3ccc(N4CCNCC4)cn3)nc2n1C1CCCC1`, the Papp is 138 ×10⁻⁶ cm/s.

As for `CN(Cc1ccc(/C=C/C(=O)NO)cc1)CC12CC3CC(CC(C3)C1)C2`, the Papp is greater than 1000 ×10⁻⁶ cm/s.

In the case of `O=C(Nc1ccc(S(=O)(=O)Nc2nccs2)cc1)c1cccc2ccccc12`, the Papp came to 11.9 ×10⁻⁶ cm/s.

Molecule `O=c1c(-c2cccs2)ccc2n1C[C@H]1C[C@@H]2CN(C2CCOCC2)C1` had a Papp of 460 ×10⁻⁶ cm/s.

In turn, `O=C1CCC(CNC(=O)c2nc(-c3ccccc3)cc3[nH]ccc23)N1` (stereo not given) gave a Papp of 123 ×10⁻⁶ cm/s.

As to `O=C1NCc2cc(-c3cc4c(ccn4Cc4ccncc4)c(N4CCOCC4)n3)ccc21`, the Papp is 189 ×10⁻⁶ cm/s.

`CCS(=O)(=O)c1nc(-c2ccc(Cl)cc2)cc(C(F)(F)F)n1` had a Papp of 975 ×10⁻⁶ cm/s.

As to `O=C(Cc1ccccc1)Nc1ccc(S(=O)(=O)Nc2nccs2)cc1`, the Papp turned out to be 1.67 ×10⁻⁶ cm/s.

In the case of `CCOC(=O)c1ccc(NC(=O)CSc2nc3c(cc2C#N)N2CCC3CC2)cc1`, the Papp was found to be 422 ×10⁻⁶ cm/s.

In turn, `NC(=O)C1CCN(c2nc(-c3cc4ccccc4o3)cs2)CC1` gave a Papp of 66.2 ×10⁻⁶ cm/s.

On to `O=C(Nc1nc(-c2ccccc2)cs1)c1ccncc1NS(=O)(=O)c1ccc2c(c1)CCC2`, for which the apparent permeability (Papp) was greater than 1000 ×10⁻⁶ cm/s.

`CN1CCN(c2ccc(-c3cccc(CN4CCOCC4)c3)cc2NC(=O)c2c[nH]c(=O)cc2C(F)(F)F)CC1` came in with a Papp of 3.88 ×10⁻⁶ cm/s.

The molecule `Fc1ccc(CNc2nc(-c3ccncc3)nc3ccccc23)cc1F` displayed a Papp of 569 ×10⁻⁶ cm/s.

As for `O=C(NCC1(c2nc(-c3ccccc3)cs2)CCOCC1)c1cccc(-c2noc(C(F)(F)F)n2)c1`, the Papp stood at 665 ×10⁻⁶ cm/s.

In the case of `O=C1NCc2ccc(-c3cc4c(ccn4Cc4cccnc4)c(C4=CCOCC4)n3)cc21`, the Papp came to 175 ×10⁻⁶ cm/s.

For `COc1ccc(-c2nc3ncccc3[nH]2)cc1`, the Papp came to 139 ×10⁻⁶ cm/s.

`CCN(CCCO)CCCOc1ccc2c(Nc3cc(CC(=O)Nc4cccc(F)c4)[nH]n3)ncnc2c1` displayed a Papp of 2.5 ×10⁻⁶ cm/s.

`CC1CCN(S(=O)(=O)c2ccc3c(ccc(=O)n3CC(=O)NCc3ccc(Cl)cc3)c2)CC1` returned a Papp of 799 ×10⁻⁶ cm/s.

As for `C#CCOc1ccc(-c2nnc(Nc3ccc(NC(C)=O)cc3)c3ccccc23)cc1`, the Papp was determined as 502 ×10⁻⁶ cm/s.

`Fc1ccc(Nc2ccnc(-c3ccncc3)n2)cc1F` showed a Papp of 371 ×10⁻⁶ cm/s.

`CNc1sc(-c2cccc3ccccc23)nc1C#N`: the apparent permeability coefficient (Papp) came out at 716 ×10⁻⁶ cm/s.

With `CSc1nn(Cc2cccc(C)c2)c(N)c1S(=O)(=O)c1ccccc1`, the Papp is 516 ×10⁻⁶ cm/s.

Regarding `COc1cccc(CNc2ccc(S(=O)(=O)Nc3cccc4ccncc34)cc2)c1O`, the Papp was greater than 1000 ×10⁻⁶ cm/s.

In turn, `c1coc(-c2nc3ccncc3[nH]2)c1` had a Papp of 27.9 ×10⁻⁶ cm/s.

`COc1ccccc1C(=O)Nc1ccccc1C(=O)Nc1cccc(S(=O)(=O)C(F)(F)F)c1` had a Papp of 7.6 ×10⁻⁶ cm/s.

Turning to `Fc1ccc(Nc2nccc(-c3ccncc3)n2)cc1F`, the Papp was greater than 1000 ×10⁻⁶ cm/s.

With `NC(=O)C1CCN(c2nc(-c3cccc(C(F)(F)F)c3)cs2)CC1`, the Papp stood at 566 ×10⁻⁶ cm/s.

`COc1c(O)cc2c(c1OC)-c1ccc(SC)c(=O)cc1C(NC(C)=O)CC2` (stereo not given) displayed a Papp of 19.5 ×10⁻⁶ cm/s.

Regarding `O=C(O)c1cnc(-c2ccc(F)cc2)nc1-c1ccncc1`, the Papp was less than 1 ×10⁻⁶ cm/s.

Consider `CC(C)(C)C1CCc2c(sc(NC(=O)c3ccncc3)c2C(N)=O)C1` (stereo not given), for which the Papp worked out at 581 ×10⁻⁶ cm/s.

The molecule `Cc1ccccc1C(=O)Nc1sc2c(c1C(=O)NCc1ccco1)CCC(C(C)(C)C)C2` (stereo not given) gave a Papp of 167 ×10⁻⁶ cm/s.

In turn, `Cc1ccc(S(=O)(=O)Nc2cnccc2C(=O)Nc2nc(-c3ccco3)cs2)cc1` had a Papp of 297 ×10⁻⁶ cm/s.

In turn, `Cc1cc(N[S+](=O)([O-])c2ccc(NC(=O)Cc3ccc(F)c(F)c3)cc2)no1` had a Papp of 6.43 ×10⁻⁶ cm/s.

Molecule `Cn1cnc(S(=O)(=O)Nc2cnccc2C(=O)Nc2nc(-c3ccccc3)cs2)c1` came in with a Papp of 1.1 ×10⁻⁶ cm/s.

In turn, `Fc1ccc(CNc2ncnc3onc(-c4ccc(F)cc4)c23)cc1` yielded a Papp greater than 1000 ×10⁻⁶ cm/s.

As to `O=C1Cc2cc(C(=O)c3ccco3)ccc2N1`, the Papp came to 35.2 ×10⁻⁶ cm/s.

In turn, `CCOc1ccc(CCNC(=O)c2cc3sccc3n2Cc2ccc(-n3cncn3)cc2)cc1OCC` came in with an apparent permeability coefficient (Papp) greater than 1000 ×10⁻⁶ cm/s.

For the molecule `C=Cc1ccc(Cn2c(C(=O)O)c(CNCc3ccccc3)c3ccc(OC)cc32)cc1`, the Papp is 900 ×10⁻⁶ cm/s.

In the case of `Cc1ccc(-c2cc(C(=O)Nc3ccc(-c4noc(=O)[nH]4)cc3)c3ccccc3n2)cc1C`, the Papp came out at 3 ×10⁻⁶ cm/s.

In turn, `Cc1cccc(-n2cnc3cc(C(=O)N4CCCC(C)(C)C4)ccc32)c1` came in with an apparent permeability (Papp) greater than 1000 ×10⁻⁶ cm/s.

The molecule `Cc1ccc(NS(=O)(=O)c2cc3c(cc2N[C@H](C)CO)NC(=O)CC3)cc1C` came in with a Papp of 273 ×10⁻⁶ cm/s.

Regarding `COc1ccc(C(=O)NC2CCCc3c2[nH]c2ccccc32)cc1OC` (stereo not given), the Papp was 38.1 ×10⁻⁶ cm/s.

Regarding `O=S(=O)(Nc1ccc(S(=O)(=O)Nc2nccs2)cc1)c1ccc2ccccc2c1`, the Papp was 7.37 ×10⁻⁶ cm/s.

In turn, `C#Cc1ccc(NC(=O)c2cnn3c(C)cc(C)nc23)cc1` registered a Papp of 14 ×10⁻⁶ cm/s.

`c1ccc(CNc2nc(NCc3ccccc3)c3ccccc3n2)cc1` gave a Papp of 253 ×10⁻⁶ cm/s.

`COc1cc(/C=C2\C(=O)Nc3ccccc32)ccc1O` had a Papp greater than 1000 ×10⁻⁶ cm/s.

The molecule `O=C1Nc2ccccc2/C1=C\c1ccc(O)c(Cl)c1` gave a Papp of 608 ×10⁻⁶ cm/s.

`N#Cc1ccccc1-c1csc(N2CCC(C(N)=O)CC2)n1` displayed a Papp of 343 ×10⁻⁶ cm/s.

For the molecule `CC(C)c1ccc2oc3nc(N)c(C(=O)O)cc3c(=O)c2c1`, the Papp is 9.71 ×10⁻⁶ cm/s.

In turn, `Fc1ccccc1Nc1nc(-c2ccncc2)nc2ccccc12` displayed a Papp of 839 ×10⁻⁶ cm/s.

Take `CN(C)C(=O)c1nc(-c2ccc(Cl)nc2)c2ccccn12`: the Papp was greater than 1000 ×10⁻⁶ cm/s.

For `COC[C@@H]1CN(C(=O)c2nn(C)c3ccccc23)C[C@H]1c1nc(C)no1`, the Papp was 165 ×10⁻⁶ cm/s.

In turn, `COc1ccc(-c2ccc3nc(-c4ccc(SC)cc4)oc3c2)c(OC)c1OC` returned a Papp of less than 1 ×10⁻⁶ cm/s.

Molecule `CCOC(=O)c1ccc(N2C(=O)c3n[nH]c(-c4ccco4)c3C2c2ccc(C)cc2)cc1` (stereo not given) showed a Papp of 6.34 ×10⁻⁶ cm/s.

Molecule `c1ccc(-c2nc(N3CCCCCC3)c3ccccc3n2)nc1` returned a Papp greater than 1000 ×10⁻⁶ cm/s.

`O=[S+]([O-])(Nc1ccc(C2CCNCC2)cc1)c1ccc(NCc2ccc(Cl)cc2O)cc1` gave a Papp of 2.21 ×10⁻⁶ cm/s.

The molecule `OCc1ccc(-c2nn(Cc3ccccc3)c3ccccc23)o1` registered a Papp of 842 ×10⁻⁶ cm/s.

With `O=C1Nc2ccccc2/C1=C\c1ccc(C(=O)O)cc1`, the Papp came to 3.96 ×10⁻⁶ cm/s.

`CC1=Nc2cc(C(=O)NCCc3ccccc3)ccc2Sc2c(C)ccc(C)c21`: the Papp is 359 ×10⁻⁶ cm/s.

For the molecule `COc1cccc(CNc2ccc(S(=O)(=O)Nc3nc(C)cs3)cc2)c1O`, the Papp was determined as 128 ×10⁻⁶ cm/s.

Turning to `O=S(=O)(Nc1ccccc1)c1ccc(NCc2ccc(Br)cc2O)cc1`, the Papp worked out at 537 ×10⁻⁶ cm/s.

For the molecule `CC1CCN(C(=O)c2ccc(-c3ccc(N4CCSCC4)nc3)cc2)CC1`, the Papp is greater than 1000 ×10⁻⁶ cm/s.

As for `Cc1ccc(S(=O)(=O)Nc2cnccc2C(=O)Nc2nc(-c3cccc(C)c3)cs2)cc1`, the Papp was 729 ×10⁻⁶ cm/s.

Consider `CCOc1ccc(CCNC(=O)c2cc3ccncc3n2Cc2cccc(C)n2)cc1OCC`, for which the Papp was determined as 3.77 ×10⁻⁶ cm/s.

For the molecule `O=C1Nc2ccc(C(=O)c3ccco3)cc2/C1=C/c1cc(Cl)c(O)c(Cl)c1`, the Papp stood at 41.1 ×10⁻⁶ cm/s.

`Cc1ccccc1NC(=O)Nc1cccs1` displayed a Papp of 106 ×10⁻⁶ cm/s.

For the molecule `COc1ccc(C2Nc3ccccc3C(=O)N2Cc2ccco2)cc1COc1ccc(NC(C)=O)cc1` (stereo not given), the Papp is 329 ×10⁻⁶ cm/s.

For `N#Cc1cccc(NC(=O)c2sc3nc4c(cc3c2N)N2CCC4CC2)c1`, the Papp came to 917 ×10⁻⁶ cm/s.

For `COc1cc2ncnc(Oc3cccc(NC(=O)Nc4cc(C(C)(C)C(F)(F)F)on4)c3)c2cc1OC`, the Papp is 36.1 ×10⁻⁶ cm/s.

For `CCCC1=Nc2cc(C(=O)NC3CCCC3)ccc2Sc2ccc(C)cc21`, the Papp was 662 ×10⁻⁶ cm/s.

`COc1ccc(NC(=O)C2=C(C)NC(Nc3nc4ccccc4o3)=NC2c2ccccc2Br)cc1` (stereo not given): the Papp is 371 ×10⁻⁶ cm/s.

For the molecule `CCN(CC)S(=O)(=O)c1ccc(N2CCCC2)c(NS(=O)(=O)c2ccccc2)c1`, the Papp is 396 ×10⁻⁶ cm/s.

With `Cc1ccc(/C=C/c2nc3ccccc3n2S(=O)(=O)c2cccc(Cl)c2)cc1`, the Papp turned out to be 11.5 ×10⁻⁶ cm/s.

Molecule `Fc1cc(Nc2nc(-c3ccncc3)nc3ccccc23)ccc1-c1ccc(F)c(F)c1F` yielded a Papp of 57.5 ×10⁻⁶ cm/s.

Turning to `NC(=O)C1CCN(c2nc(-c3ccc4c(c3)CCO4)cs2)CC1`, the apparent permeability (Papp) is greater than 1000 ×10⁻⁶ cm/s.

`CCOC(=O)C1CCN(C(=O)C2(NC(=O)Nc3ccccc3Cl)CCC2)CC1` returned a Papp of 266 ×10⁻⁶ cm/s.

Molecule `CCOC(=O)c1ccc(N2C(=O)c3n[nH]c(-c4cccs4)c3C2c2ccc(OCC)cc2)cc1` (stereo not given) yielded a Papp of 739 ×10⁻⁶ cm/s.

`Cc1ccccc1CSc1nc2ncc(Br)cc2[nH]1` came in with a Papp of 497 ×10⁻⁶ cm/s.

For the molecule `Cc1nc([N+](=O)[O-])cn1-c1ccc([N+](=O)[O-])cc1`, the Papp came to 27.9 ×10⁻⁶ cm/s.

The molecule `COc1ccc(NC(=O)c2c(C)cccc2C)cc1S(=O)(=O)Nc1ccc(Br)cc1` came in with a Papp of 581 ×10⁻⁶ cm/s.

Turning to `COc1ccc(C2(C(=O)N3CCC(n4cc(-c5nc(C)no5)nn4)CC3)CC2)cc1`, the Papp is 34.9 ×10⁻⁶ cm/s.
